Measurements published in a melting point compilation (Tetko et al.; mined from patent text by program, amines drawn as free bases though some values may be those of a salt).

SMILES	melting point
CC1=NN=C(c2ccc([N+](=O)[O-])cc2)c2cc(Br)ccc2C1	200 to 205 °C
O=C(C=Cc1ccc(C(F)(F)F)cc1)N1CCOCC1	142 to 144 °C
Cc1c(C(=O)OC(C)C)sc(C(=O)OC(C)C)c1O	87 to 89 °C
N#Cc1ccc2c(c1)S(=O)c1ccc(F)cc1C=C2 (stereo not given)	240 to 243 °C
CCOC(=O)c1c(CC(=O)O)n(-c2ccc(OC(F)(F)F)cc2)c2ccc(Oc3ncccc3C(N)=O)cc12	128 to 130 °C
O=C(Nc1ccc(F)cc1F)Nc1oc(=O)c2ccc(Cl)cc2c1-c1ccccc1	196 to 197 °C
CCN(C(=O)OC(C)(C)C)C1CC=C(c2c[nH]c3ccc(N)cc23)CC1 (stereo not given)	87 to 89 °C
COC1c2c(c(C)nn2-c2ccccn2)C(=O)CC1(C)C (stereo not given)	86 to 89 °C
CCCCN(Cc1ccc(-c2ccccc2-c2nnn[nH]2)cc1)c1nc(C)ncc1C(=O)OCC	164 to 166 °C
CN1CCN(CC(=O)NN)CC1	87 to 89 °C
Cc1ccc(C(C)N2C(=O)c3ccccc3C2=O)cc1 (stereo not given)	65 to 66 °C
O=c1c(NCc2cccc(O)c2)c(Nc2ccc(O)c(-c3ccccn3)c2)c1=O	271 to 272 °C
CC(Cl)CNc1cccc(C(N)=O)c1 (stereo not given)	193 to 194 °C
CC(C)(C)c1ccc(S(=O)(=O)C=CSc2ccccc2)cc1	258 °C
COc1ccc2c(c1)CCC1C2CCC2(CC(C)C)C(O)CCC12 (stereo not given)	103 to 104 °C
CCn1nc2c(OC)nc3ccccc3c2c1CO	219 to 220 °C
COc1ccc(-c2ccc(C(=O)Nc3ccc4cc(CN5CCCC5)cnc4c3C)c(F)c2)cc1	164 to 166 °C
CCN1CC(=O)N(c2cc(Cl)ccc2OC)C1=S	171 to 174 °C
CCN(CC)CCNC(=O)c1c2cc(I)ccc2nc2ccc(I)cc12	209 to 211 °C
COC(=O)c1ccc(Oc2cc(-n3nc(C)n(C(F)F)c3=O)c(F)cc2Cl)cc1	97 to 98 °C
Cn1cc(C(N)=O)c(Nc2ccc(Cl)c(Cl)c2)cc1=O	> 250 °C
COC(=O)CC(c1ccccc1)N1C(=O)c2ccccc2C1=O (stereo not given)	75 to 76 °C
CCC(O)(CC)c1ccc(-c2cccc(OCc3ccc(CO)c(CO)c3)c2C)cc1	117 to 118 °C
CN(CCCOc1ccc(C=C2SC(=O)NC2=O)cc1)c1nc2ccccc2o1	202 to 204 °C
CNC(=O)N(O)C(C)c1cc2cc(Cl)ccc2[nH]1 (stereo not given)	159 to 160 °C
O=C(Cc1ccccc1)NCO	78 °C
CCCCCCCCCCCCCN1CC(=O)C(C#N)=C1N	214 to 215 °C

SMILES	melting point
CC(C)(C)c1csc(N)c1C#N	92 °C
CCCCCCCCCCCCCCCCOc1coc(CO)cc1=O	68 to 69.5 °C
CC1SC(=O)NN=C1c1cccc(N)c1 (stereo not given)	167 to 170 °C
O=C1Cc2c(ccc3ccccc23)C(c2ccccc2F)N1 (stereo not given)	259 to 261 °C
CCNc1nc(C(C)(C)C)nn1-c1c(Cl)cc(C(F)(F)F)cc1Cl	67 to 70 °C
NS(=O)(=O)c1ccc(-n2nc(C(F)(F)F)cc2-c2ccc(-c3ccco3)cc2)cc1Cl	193 °C
O=C(O)c1ccc2c(c1)S(=O)(=O)c1ccc([N+](=O)[O-])cc1C2=O	> 360 °C
CC1(C(=O)O)OC2CCCCC2NC1=O (stereo not given)	142 to 144 °C
Cc1c(CO)c2cnnc(OCc3ccc(F)cc3)c2n1C[C@H]1C[C@@H]1C	128 to 129 °C
O=P(O)(O)C(O)c1ccccc1 (stereo not given)	160 to 162 °C
CCCCCCCCCCCCCCCCNc1ccc(C(=O)NN)cc1	154 to 156 °C
CC(C)(O)Cn1c(CO)nc2c(N)nc3cc(-c4cccc(CO)c4)cnc3c21	227 to 229 °C
NC(=O)c1ccc(NC2CCCN(Cc3ccccc3)C2)cc1 (stereo not given)	158 to 160 °C
CCOC(=O)c1ncn2c1[C@@H]1CCN1C(=O)c1c-2ccc(F)c1F	234 to 236 °C
O=c1c(Cc2ccccc2)cn(-c2ccc(F)cc2)c2ncccc12	208 to 209 °C
OCCCOC(c1ccccc1)c1ccccc1	140 to 141 °C
CCn1cc(C(=O)O)c(=O)c2cc(F)c(C)c(F)c21	245 to 248 °C
O=C(O)C(O)c1ccc(-n2cccc2)cc1 (stereo not given)	168 °C
COc1ccc(Br)c2c1CN(Nc1ccncc1)CC2	172 to 173 °C
CN(C)c1cccc(CN2C(=O)C3(COc4cc5c(cc43)OCCO5)c3ccccc32)n1 (stereo not given)	196 to 197 °C
COC(=O)c1ccc(CC(C)=O)cc1	40 to 47 °C
CN1C(=O)C(CCCN2CCN(c3ccc(F)cc3)CC2)Oc2cc3c(cc21)CCCC3 (stereo not given)	98 to 98.5 °C
CCCC(CCC)NC(=O)c1ccc2oc(OC)nc2c1	137 to 138 °C
COC(=O)C(C)(C)CC(=O)c1ccc(-n2ccnc2)cc1	89 to 93 °C
COc1cc(Nc2nccc(-c3ccc(NCCCCO)nc3)n2)cc(OC)c1OC	170 to 171 °C
CC(=O)Oc1cccc2c1C(=O)c1c(OC(C)=O)cc(C#N)cc1C2=O	218 to 220 °C
CCC(=C(c1ccc(I)cc1)c1ccc(OCCCCl)cc1)c1ccccc1	98 to 100 °C

SMILES	melting point
O=C1N(Cc2ccccc2)C2CSC(O)C2N1Cc1ccccc1 (stereo not given)	163 to 164 °C
CC(=Cc1ccc(N)cc1)c1ccc2c(c1)C(C)(C)CCC2(C)C	106 to 108 °C
CCNC(=O)c1c([Si](C)(C)C)ccc(Cl)c1Cl	96 to 98 °C
COc1cccc(CNC(=O)c2[nH]c3ccc(Cl)cc3c2S(=O)(=O)c2nccs2)c1	205 to 209 °C
ClCCCn1ncc2cc(OCc3ccccc3)ccc21	65 to 66 °C
C=CNC(=O)C(C)(Cc1ccccc1)S(=O)(=O)CCCl (stereo not given)	107 to 108 °C
Oc1cccc2c1C=CC=CN2	132 to 136 °C
COC(=O)CS(=O)Cc1cccc(-c2nc(=O)c3ccccc3s2)n1 (stereo not given)	150 to 151 °C
CC(C)(C)c1cc(-c2nn(CCCBr)c(=O)o2)cc(C(C)(C)C)c1O	130 to 131 °C
CCOc1nc2cccc(C(=O)O)c2n1Cc1ccc(-c2ccccc2-c2nnnn2C(c2ccccc2)(c2ccccc2)c2ccccc2)cc1	168 to 170 °C
CCCCCS(=O)(=O)NC(=O)CCc1ccc(OCCN2CCCC2=O)cc1Oc1ncc(C(F)(F)F)cc1Cl	123 to 126 °C
CC(CS)C(=O)N(CC(=O)O)Cc1ccco1 (stereo not given)	150 to 153 °C
CC(C)(C)c1nnc(N=C=O)s1	261 to 263 °C
COc1ccc2c(c1)c1c(n2Cc2ccccc2)CCCC1=O	174 to 175 °C
Cc1c(C(=O)NCC(N)=O)cccc1-c1cccc2cc(Cc3cccc(C(F)(F)F)c3)sc12	124 to 125 °C
CN(C)C(=O)C1Oc2ccc([N+](=O)[O-])cc2O1 (stereo not given)	109 °C
CCOC(=O)C(C)(NC(=O)CNC=O)C(=O)OCC	98 to 99 °C
CC(C)(C)c1ocnc1C=C(O)C(=O)O	153 to 155 °C
CNC(=O)c1ccc(N2CCN(Cc3cnc4c(c3)[nH]c(=O)n3cccc43)CC2)c(C)c1	264 to 266 °C
O=C(O)c1cccc2c(=O)c3cc(I)ccc3[nH]c12	355 to 357 °C
COc1cccc(CNC(=O)c2nc3ccc(O)cc3c(=O)[nH]2)c1	268 to 271 °C
O=C1c2cc(Cl)ccc2CC1Br (stereo not given)	84 to 87 °C
CCCC(CCC)Nc1nc(C)nc(Oc2c(Br)cc(C(C)(C)O)cc2OC)c1[N+](=O)[O-]	119 to 120 °C
CC(S(N)(=O)=O)S(=O)(=O)N1CCCC1 (stereo not given)	78 to 80 °C
Brc1cc2c(nc1-c1ccccc1)OCC2	83.5 to 85.5 °C
CC(=O)SCCCc1ccc(C2OCC(C)(C)CO2)cc1	44 °C
COCCCC(=O)NNC(=O)N1Cc2ccccc2Oc2ccc(Cl)cc21	142 to 144 °C

SMILES	melting point
CCCOc1ccc(CCC(=O)N2CCN(C)CC2)cc1-c1nc2c(C)cccc2c(=O)[nH]1	184 to 185 °C
CCC(O)(CC)C1(c2onc(-c3ccc(O)cc3)c2-c2ccccc2)CC1	118 to 119 °C
CSc1c(Cl)nc(Cl)nc1SC#N	143 to 144 °C
O=C(c1ccc([N+](=O)[O-])cc1)N1Cc2cccn2Cc2ccccc21	188 to 190 °C
Cc1cccc(NC(=O)NCCC(=O)O)c1	166 °C
COC(=O)CCCc1cc2cc(Cl)ccc2n1S(=O)(=O)c1c(C)nn(C)c1C	125 to 127 °C
CN1C(=O)C(C)(C)C(=O)N(C)c2cc(Br)ccc21	194 to 195 °C
CCC(=O)N(Cc1cccc2c1S(=O)(=O)N=C2C1=C(O)C(C(C)(C)C)N(Cc2ccc(F)c(C)c2)C1=O)S(C)(=O)=O (stereo not given)	98 to 99.8 °C
CC(=O)OCC1OC(Oc2nc[nH]c2C(N)=O)C(OC(C)=O)C1OC(C)=O (stereo not given)	132 to 134 °C
O=C1CNC(=O)N1Cc1ccc2c(c1)N(C1CCN(CCc3ccc(F)cc3)CC1)CC2	191 to 193 °C
CCOC(=O)c1c(C)cc(O)c(C(=O)OCC)c1O	61 to 62 °C
CON=C1CCCc2cc(OCCCOc3c(Cl)cc(OCC=C(Cl)Cl)cc3Cl)ccc21	75 to 77 °C
CC(C)N[C@H](CO)Cc1ccccc1	65 to 66 °C
COc1ccc(C(O)c2ccc(OC)c(OCc3ccccc3)c2)cc1OCc1ccccc1	103 to 105 °C
CCc1nn(CCO)c(CC)c1Oc1cc(C#N)cc(SC)c1	72 °C
COc1ccc(CNc2nnc(N(C)CCCO)c3ccc(Cl)cc23)cc1Cl	115 to 117 °C
COc1ccc(C(=O)c2ccccc2C(F)(F)F)c(O)c1Cl	101 to 102 °C
c1ccc(C2CCNCc3ccccc3O2)cc1 (stereo not given)	73 to 74 °C
CC#CC(C)(C)NC(=O)C(CC)Oc1ccc2ncc(Cl)cc2c1 (stereo not given)	105 to 107 °C
OCCN1CCn2c1nc1ccccc12	158 to 160 °C
CSc1ccc(C(=O)CC(=O)C(F)F)cc1	68 to 70 °C
C[C@@H]1CCCN1CCCOc1ccc(-c2cc(-c3ccccn3)c(=O)[nH]n2)cc1	157 to 161 °C
CCCc1c(OCCCOc2cccc3c2CCCC3)ccc2c1OC(CCCC(O)CO)(CCCC(O)CO)CC2=O (stereo not given)	87 to 88 °C
CCOC(=O)C(CCCc1ccccc1CP(=O)(OCC)OCC)(NC(C)=O)C(=O)OCC	76 to 79 °C
